Laboratory results as given in US12059453B2, “Blood plasma fractions for use in muscle regeneration” (Alkahest, Inc., priority 2019, dated 2024).

Tested on: C2C12 cells
Experiment: IGF-1 versus PPF1 dose-response on glucose utilization, C2C12 cells in 2% horse serum
Type: cell-based
Details: treatment day 5, read day 6
Description: FIG. 16A and FIG. 16B report the effects of insulin-like growth factor-1 (IGF-1) on glucose utilization in C2C12 cells treated in 2% horse serum. Cells were plated in DMEM plus 4.5 g/L of glucose and 10% fetal bovine serum (FBS) at Day −2 (d−2). At Day 0 (d0) media was refreshed with DMEM plus 1 g/L glucose and 2% horse serum. At Day 5 (d5) various treatments were added with glucose utilization determined at Day 6 (d6). […] Recombinant human IGF1 was purchased from R&D Systems (Cat. 291-G1). […] IGF-1 is known to have an impact on metabolism of myotubes, and its presence in PPF1 has been calculated as approximately 14.88 ng/mL. […] Thus, other factors must necessarily be involved in the effects of PPF1.

recombinant human IGF-1: Recombinant human IGF1 purchased from R&D Systems (Cat. 291-G1)
EC50, glucose utilization: 0.01743 µg/mL
